# Target: T1, GRK2 (Homo sapiens, UniProt P25098)
# T1 sequence (P25098 1-689): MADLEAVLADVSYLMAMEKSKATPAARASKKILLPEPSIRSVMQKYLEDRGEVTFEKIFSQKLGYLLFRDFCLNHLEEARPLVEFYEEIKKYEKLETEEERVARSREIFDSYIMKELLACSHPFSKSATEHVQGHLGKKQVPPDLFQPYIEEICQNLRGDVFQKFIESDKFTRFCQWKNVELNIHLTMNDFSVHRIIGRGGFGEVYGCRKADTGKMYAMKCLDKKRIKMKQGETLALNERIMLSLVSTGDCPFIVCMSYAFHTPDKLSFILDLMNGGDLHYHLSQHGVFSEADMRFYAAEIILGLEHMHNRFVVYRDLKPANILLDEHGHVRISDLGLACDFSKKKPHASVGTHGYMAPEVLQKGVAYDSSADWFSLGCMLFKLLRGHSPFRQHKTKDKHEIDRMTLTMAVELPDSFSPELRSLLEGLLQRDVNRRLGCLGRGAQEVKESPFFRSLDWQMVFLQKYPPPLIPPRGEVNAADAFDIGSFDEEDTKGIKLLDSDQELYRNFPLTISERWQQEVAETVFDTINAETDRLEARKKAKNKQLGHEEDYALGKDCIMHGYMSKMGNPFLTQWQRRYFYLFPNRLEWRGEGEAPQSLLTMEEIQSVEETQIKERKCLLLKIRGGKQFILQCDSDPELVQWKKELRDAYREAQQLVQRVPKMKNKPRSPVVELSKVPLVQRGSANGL
# Test: hGRK2 LANCE Ultra In Vitro Assay
# Type: biochemical
# Conditions: hGRK2 LANCE Ultra Assay IC50, 10 nM GRK2; ATP 30 or 600 μM (not stated which)
# Experimental: G-protein coupled receptor kinases (GR Kinases) desensitize activated G-protein coupled receptors (GPCRs), by phosphorylation of cytoplasmic loops or carboxyl-terminal tails of GPCRs. GRK2 is one of the 6 different GR kinases and is implicated in heart failure and diabetes.
# This assay is sensitive and requires as low as 10 nM enzyme, in a total volume of 10 μL. In addition, the ATP concentration can be varied over a broad range, without interfering with the assay or changing the assay condition. […] Testing inhibitors routinely at both high and low ATP concentrations also enables identification of potential non-ATP competitive inhibitors.
# Paroxetine was used as the reference compound in this assay.
# Test compounds were dissolved in DMSO at 1 mM and were 3-fold serial diluted. The compound DMSO solutions were then added (100 nL) into a plate well using an acoustic dispenser. To each well was then added 20 nM GRK2 (5 μL) in assay buffer (20 mM HEPES, pH 7.5, 10 mM MgCl2, 0.001% Tween-20®). The plate was sealed and centrifuged at 1000 rpm for 1 min. The plate and wells containing a mixture of GRK2 and test compound were incubated at ambient temperature for 30 min (prior to initializing the enzymatic reaction).
# Enzyme reactions were initiated by the addition of 4.9 μL Substrates/Eu-Ab mix to each well. […] Final concentrations of reagents in the assays were as follows: 20 mM HEPES, pH 7.5; 10 mM MgCl2; 0.001% Tween-2® (w/v), 30 or 600 μM ATP; 200 nM ULight-peptide; 4 nM Eu-Ab; 10 nM GRK2; and 1% DMSO.
# The plates were sealed and centrifuged at 1000 rpm for 1 min. For reactions at low ATP concentration (30 μM), reaction mixtures were incubated at ambient temperature for 120 min. For reactions at high ATP concentration (600 μM), reaction mixtures were incubated at ambient temperature for 60 min.
# The enzyme reactions were quenched by addition of 10 μL of 12 mM EDTA in 1× LANCE detection solution to each well. The plates were then incubated at ambient temperature for 30 min.
# The raw HTRF data were converted to % active as follows:
# % active=(sample−NC)/(PC−NC)*100
# where NC is the mean of negative control (reactions without GRK2), and PC is the mean of positive control (reactions with GRK2 but without inhibitor). IC50 values were determined from a 4-parameter fit, using the following equation:
# Y=Bottom+(Top−Bottom)/(1+10^(Log IC50-X)*Hill slope)),
# where X=log10 of the compound concentration.
row,IC50 [nM],SMILES
1,8,"O=C(COc1cccc(Cn2ncc3ccc(-c4cn[nH]c4)cc3c2=O)c1)N1CCOCC1 [Compound 6, 2-[[3-(2-Morpholino-2-oxo-ethoxy)phenyl]methyl]-7-(1H-pyrazol-4-yl)phthalazin-1-one]"
2,12,"CC(C)NC(=O)c1cc(Cn2ncc3ccc(-c4cn[nH]c4)cc3c2=O)ccc1F [Compound 11, 2-Fluoro-N-isopropyl-5-[[1-oxo-7-(1H-pyrazol-4-yl)phthalazin-2-yl]methyl]benzamide]"
3,33,"COc1cccc(C(CO)n2ncc3ccc(-c4cn[nH]c4)cc3c2=O)c1 (stereo not shown) [Compound 15, 2-[2-Hydroxy-1-(3-methoxyphenyl)ethyl]-7-(1H-pyrazol-4-yl)phthalazin-1-one]"
4,11,"COc1cccc(Cn2ncc3ccc(-c4cn[nH]c4)c(F)c3c2=O)c1 [Compound 9, 8-Fluoro-2-[(3-methoxyphenyl)methyl]-7-(1H-pyrazol-4-yl)phthalazin-1-one]"
5,89,"COc1cccc(C(C)n2ncc3ccc(-c4cn[nH]c4)cc3c2=O)c1 (single isomer, unassigned) [Compound 16, 2-[1-(3-Methoxyphenyl)ethyl]-7-(1H-pyrazol4-yl)phthalazin-1-one]"
6,10,"O=C(NC1CC1)c1cccc(Cn2ncc3ccc(-c4cn[nH]c4)cc3c2=O)c1 [Compound 7, N-Cyclopropyl-3-[[1-oxo-7-(1H-pyrazol-4-yl)phthalazin-2-yl]methyl]benzamide]"
7,> 20000,"COc1cccc(C(C(=O)O)n2ncc3ccc(-c4cn[nH]c4)cc3c2=O)c1 (stereo not shown) [Compound 18, 2-(3-Methoxyphenyl)-2-[1-oxo-7-(1H-pyrazol-4-yl)phthalazin-2-yl]acetic acid]"
8,5,"O=C(NC1CC2CCC1C2)c1cccc(Cn2ncc3ccc(-c4cn[nH]c4)cc3c2=O)c1 (stereo not shown) [Compound 3, N-Norbornan-2-yl-3-[[1-oxo-7-(1H-pyrazol-4-yl)phthalazin-2-yl]methyl]benzamide]"
9,6.3,O=C(NC1CC1)c1cc(F)cc(Cn2ncc3ccc(-c4cn[nH]c4)cc3c2=O)c1 [Compound 5]
10,13,"CN(C)C(=O)COc1cccc(Cn2ncc3ccc(-c4cn[nH]c4)cc3c2=O)c1 [Compound 12, N,N-Dimethyl-2-[3-[[1-oxo-7-(1H-pyrazol-4-yl)phthalazin-2-yl]methyl]phenoxy]acetamide]"
